Consider 3 molecules from patent US8592421B2, “Cyclic bioisosters of purine system derivatives and a pharmaceutical composition based thereon” (priority 2003, dated 2013).

This assay deals with embryonic fibroblasts of mouse NIH-3T3. The assay can be described thus: Effect on endocellular pHi of fibroblasts (microspectrofluorimetry with FDA / BCECF-AM). The class given is cell-based. The conditions noted are these: for rise of pHi: fibroblasts in an attached spread state; for change of pHi: medium DME without blood serum, 20 minutes; for increase of pHi of cytosol: medium with 10.0% blood serum, 20 minutes after addition. How it is done:
The effect of the compounds according to the invention on the endocellular pH, embryonic fibroblasts of mouse NIH-3T3 supplied by the All-Russian Collection of Cellular Cultures of the Institute of Cytology of the Russian Academy of Sciences St. Petersburg was investigated. The cells were grown in the DMEM (Sigma) medium containing 2.2 g/l of sodium bicarbonate with addition of 80.0 mkg/ml of gentamicin and 10.0% embryonal veal serum at a temperature of 37° C. in an atmosphere containing 5.0% of carbon dioxide. For these experiments use was also made of a medium buffer with 5.0 mM of HEPES and 15.0 mM of sodium bicarbonate without serum or with addition of 5.0% serum. The cells were calculated with the help of a hemocytometer. A share of the dead cells was determined by colouring trypan blue.
The measurements of the endocellular pHi were carried out with the help of colorants FDA (Sigma) and BCECF-AM (Calbiochem) on a microspectrofluorimeter by a standard technique (Koshevoy Yu. V., Akatov V. S., Grobova M. E. Microspectrofluorimeter for measuring endocellular pH (micro pH)”. Devices and equipment for studies in the field of physical-and-chemical biology and biotechnology. Pushchino, 1990. P. 8-14).
The cells at a temperature of 37° C. were colored within 5 minutes with 5.0 mkM PDA that before the colouring was prepared from a 10.0 mM solution in acetone by dilution for 30 minutes in a phosphatic buffer to 0.1 mM or 2.0 mkM 1.0 mM solution BCECF-AM in DMSO.
The two-wave method of determining pHi was used based on the ratio intensities of fluorescence of the cells on two wavelengths (Akatov V. S. et all), “Endocellular pH and substrate dependence of proliferation of fibroblasts of Chinese hamster, Cytology, 1991, 33 (7), p. 86-94). The fluorescence was excited by light at λ=490 nm, the emission was recorded simultaneously with two photomultipliers on wavelengths λ=535 nm and λ=570 nm. The K-ratio of the fluorescence on two wavelengths was determined with a deduction of the background fluorescence of the medium near the investigated cells for 40-60 individual cells, which are then averaged taking into account the measurement error. A thermostatically controlled table was used that allowed measurements to be conducted at a temperature of 37° C. An account was taken for the photodynamic damage of the pigmented cells during long-time continuous illumination by excited light. The readings were taken from a section of the preparation exposed to light for not more than 5 minutes.
The calibration curves for determining the absolute pHi values by magnitude K were constructed using the Thomas technique (Thomas J. A., Bushbaum R. N., Zimniak A. w Racker E. “Intracellular pH measurements in Ehrlich ascites tumor cells utilizing spectroscopic probe generated in situ”, Biochemistry, 1979, v. 18, p. 2210-2218), for which case the pigmented cells treated for 5-10 minutes with carboxyacidic nigericyn (Calbiochem) at a concentration of 5-10 mkg/ml was placed in a solution with a high content of potassium—130 mM KCl, 1.0 mM MgCl2, 20.0 mM of HEPES) and with pH values from 6.2 to 7.6. The K values were measured in the media with different pH assuming that pHi of the cells equals to the pH of the medium due to the action of nigericyn, which exchanges potassium ions for protons and at a high content of potassium in the medium counterbalances the pH of the medium and cells. Calibration curves were used based on the fluorescence of same medium with addition of 5.0 mkM of fluorescence or BCECF were used to the control the stability of the of the instrument readings.
The cells were colored by pigment BCECF-AM and pHi was measured 10 minutes after incubation in the medium with an appropriate pH value. […]

With `O=c1[nH]n([C@@H]2O[C@H](CO)[C@@H](O)[C@H]2O)c(=O)c2nc(O)cnc12.[Na].[Na]` [Compound 23, disodium salt of 2-hydroxy-7-(β-D-ribofuranosile)pyrazine[2,3—Cl]-6H-pyridazine-5,8-dione], the “rise of pHi” value runs as follows: (2.0 mkg/ml, on the average) 0.10 unit pHi; (20.0 mkg/ml, on the average) 0.07 unit pHi. The “change of pHi” value runs as follows: (0.02 mkg/ml) “no effect was found”; (0.2 mkg/ml) “no effect was found”; (2.0 mkg/ml, on the average) 0.08 unit pHi; (20.0 mkg/ml, on the average) 0.08 unit pHi; (200 mkg/ml) “no effect was found”; (1000 mkg/ml) “no effect was found”. Further, the “increase of pHi of cytosol” value is on record as “do not initiate a change of pH” (0.02 mkg/ml); 0.1 unit pH (0.2 mkg/ml, on the average); 0.12 unit pH (2.0 mkg/ml, on the average); “do not initiate a change of pH” (20.0 mkg/ml).
As for `Nc1ncc2c(=O)[nH][nH]c(=O)c2n1` [Compound 36, 2-amino-pyrimido[4,5-d]-6H-pyridazine-5,8-dione], the “rise of pHi” value is, setting by setting: (2.0 mkg/ml, on the average) 0.10 unit pHi; (20.0 mkg/ml, on the average) 0.07 unit pHi. In addition, the “change of pHi” value reads like this: (0.02 mkg/ml) “no effect was found”; (0.2 mkg/ml) “no effect was found”; (2.0 mkg/ml, on the average) 0.08 unit pHi; (20.0 mkg/ml, on the average) 0.08 unit pHi; (200 mkg/ml) “no effect was found”; (1000 mkg/ml) “no effect was found”. For the same molecule, the “increase of pHi of cytosol” value is “do not initiate a change of pH” (0.02 mkg/ml); 0.1 unit pH (0.2 mkg/ml, on the average); 0.12 unit pH (2.0 mkg/ml, on the average); “do not initiate a change of pH” (20.0 mkg/ml).
Turning to `Nc1cccc2c(=O)[nH][nH]c(=O)c12.[Na]` [Compound 15, sodium salt of 5-amino-benzo[d]-3H-pyridazine-1,4-dione], the “rise of pHi” value (2.0 mkg/ml, on the average) is 0.10 unit pHi and the “rise of pHi” value (20.0 mkg/ml, on the average) was 0.07 unit pHi. Besides, the “change of pHi” value is “no effect was found” (0.02 mkg/ml); “no effect was found” (0.2 mkg/ml); 0.08 unit pHi (2.0 mkg/ml, on the average); 0.08 unit pHi (20.0 mkg/ml, on the average); “no effect was found” (200 mkg/ml); “no effect was found” (1000 mkg/ml). Moreover, the “increase of pHi of cytosol” value (0.02 mkg/ml) was “do not initiate a change of pH”; the “increase of pHi of cytosol” value (0.2 mkg/ml, on the average) is given as 0.1 unit pH; the “increase of pHi of cytosol” value (2.0 mkg/ml, on the average) is on record as 0.12 unit pH; the “increase of pHi of cytosol” value (20.0 mkg/ml) is recorded as “do not initiate a change of pH”.
